# From patent EP4817687A2, “NUCLEOTIDE AND NUCLEOSIDE THERAPEUTIC COMPOSITIONS AND USES RELATED THERETO” (Emory University, priority 2013, dated 2015)
# Read-outs that look alike come from different tables or passages of the source.
# Assays:
# Human DNA pol α = biological target: T1, Human DNA pol α (Homo sapiens, UniProt P09884); assay: Human DNA Polymerase Inhibition Assay, pol α; format: biochemical
# T1 sequence (P09884 1-1462): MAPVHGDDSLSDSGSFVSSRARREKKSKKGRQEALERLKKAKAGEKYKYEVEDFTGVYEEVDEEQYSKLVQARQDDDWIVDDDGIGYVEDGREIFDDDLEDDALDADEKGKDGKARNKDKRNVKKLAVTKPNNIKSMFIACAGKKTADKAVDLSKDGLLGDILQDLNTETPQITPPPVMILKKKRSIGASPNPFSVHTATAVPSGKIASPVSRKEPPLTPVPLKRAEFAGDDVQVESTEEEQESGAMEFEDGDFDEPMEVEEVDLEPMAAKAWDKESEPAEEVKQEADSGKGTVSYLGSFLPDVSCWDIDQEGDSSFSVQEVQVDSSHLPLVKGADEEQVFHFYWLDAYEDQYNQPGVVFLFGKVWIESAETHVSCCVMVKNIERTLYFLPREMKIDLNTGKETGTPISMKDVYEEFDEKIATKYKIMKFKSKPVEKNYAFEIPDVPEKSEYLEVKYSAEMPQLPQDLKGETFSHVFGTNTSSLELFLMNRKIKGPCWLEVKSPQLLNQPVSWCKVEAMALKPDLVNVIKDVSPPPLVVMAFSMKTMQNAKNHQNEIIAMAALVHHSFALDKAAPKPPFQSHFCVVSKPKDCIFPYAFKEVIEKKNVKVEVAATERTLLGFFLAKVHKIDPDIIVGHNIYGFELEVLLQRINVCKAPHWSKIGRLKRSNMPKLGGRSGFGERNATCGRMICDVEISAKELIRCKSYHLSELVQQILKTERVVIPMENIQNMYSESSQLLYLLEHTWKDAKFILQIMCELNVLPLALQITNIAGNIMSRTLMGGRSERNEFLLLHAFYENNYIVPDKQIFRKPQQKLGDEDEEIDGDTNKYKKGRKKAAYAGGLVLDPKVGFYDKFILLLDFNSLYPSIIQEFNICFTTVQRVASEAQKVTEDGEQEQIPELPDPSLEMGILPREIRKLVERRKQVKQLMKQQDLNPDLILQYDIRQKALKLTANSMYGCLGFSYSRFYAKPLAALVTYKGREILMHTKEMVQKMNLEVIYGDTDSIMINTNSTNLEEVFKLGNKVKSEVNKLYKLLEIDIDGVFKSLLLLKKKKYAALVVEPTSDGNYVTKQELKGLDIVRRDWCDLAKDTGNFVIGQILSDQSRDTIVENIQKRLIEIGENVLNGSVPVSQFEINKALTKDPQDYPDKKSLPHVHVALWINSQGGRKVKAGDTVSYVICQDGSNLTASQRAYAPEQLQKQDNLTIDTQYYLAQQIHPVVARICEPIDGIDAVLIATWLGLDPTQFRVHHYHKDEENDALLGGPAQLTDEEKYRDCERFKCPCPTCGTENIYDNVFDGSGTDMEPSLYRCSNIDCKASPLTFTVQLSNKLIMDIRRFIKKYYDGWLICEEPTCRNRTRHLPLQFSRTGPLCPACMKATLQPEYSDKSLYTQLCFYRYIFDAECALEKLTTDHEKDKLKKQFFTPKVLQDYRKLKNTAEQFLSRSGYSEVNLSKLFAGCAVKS
# Human DNA pol γ = biological target: T2, Human DNA pol γ (Homo sapiens, UniProt P54098); assay: Human DNA Polymerase Inhibition Assay, pol γ; format: biochemical
# T2 sequence (P54098 1-1239): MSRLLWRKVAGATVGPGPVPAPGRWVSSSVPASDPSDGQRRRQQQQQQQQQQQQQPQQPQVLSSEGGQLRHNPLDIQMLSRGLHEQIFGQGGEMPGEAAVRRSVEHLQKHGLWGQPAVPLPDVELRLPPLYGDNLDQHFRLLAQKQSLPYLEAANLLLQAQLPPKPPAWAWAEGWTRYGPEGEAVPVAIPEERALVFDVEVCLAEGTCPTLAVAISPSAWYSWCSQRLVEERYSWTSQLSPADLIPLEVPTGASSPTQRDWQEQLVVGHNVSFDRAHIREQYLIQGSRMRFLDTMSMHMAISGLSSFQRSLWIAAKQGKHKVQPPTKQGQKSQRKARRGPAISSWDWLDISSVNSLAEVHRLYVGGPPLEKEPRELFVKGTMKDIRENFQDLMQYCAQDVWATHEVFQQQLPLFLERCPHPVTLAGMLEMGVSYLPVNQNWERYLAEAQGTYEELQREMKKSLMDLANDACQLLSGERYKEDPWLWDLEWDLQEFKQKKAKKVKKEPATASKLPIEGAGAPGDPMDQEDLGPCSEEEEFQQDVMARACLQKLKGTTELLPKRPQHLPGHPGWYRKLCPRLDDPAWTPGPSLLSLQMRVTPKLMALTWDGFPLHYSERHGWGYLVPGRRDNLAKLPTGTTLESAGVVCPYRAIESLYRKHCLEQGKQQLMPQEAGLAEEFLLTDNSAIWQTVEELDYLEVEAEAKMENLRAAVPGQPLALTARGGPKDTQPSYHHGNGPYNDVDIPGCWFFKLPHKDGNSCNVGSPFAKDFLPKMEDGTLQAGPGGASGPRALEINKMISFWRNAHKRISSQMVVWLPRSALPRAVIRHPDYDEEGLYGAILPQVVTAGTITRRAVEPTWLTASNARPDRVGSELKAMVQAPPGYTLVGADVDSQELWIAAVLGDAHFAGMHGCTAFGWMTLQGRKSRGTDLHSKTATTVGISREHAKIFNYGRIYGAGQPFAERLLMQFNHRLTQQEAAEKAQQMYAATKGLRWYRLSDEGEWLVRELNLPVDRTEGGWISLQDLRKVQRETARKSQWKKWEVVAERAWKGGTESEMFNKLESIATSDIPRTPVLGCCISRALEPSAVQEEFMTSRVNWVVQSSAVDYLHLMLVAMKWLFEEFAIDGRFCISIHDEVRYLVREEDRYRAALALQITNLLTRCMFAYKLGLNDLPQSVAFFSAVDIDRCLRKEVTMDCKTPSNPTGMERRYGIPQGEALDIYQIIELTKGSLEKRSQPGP
# HepG2 = assay: Cytotoxicity panel (CC50), HepG2; format: cell-based; details: HepG2
# Huh-7 = assay: Cytotoxicity panel (CC50), Huh-7; format: cell-based, human; details: Huh-7
# BxPC3 = assay: Cytotoxicity panel (CC50), BxPC3; format: cell-based; details: BxPC3
# A204 = assay: Cytotoxicity panel (CC50), A204; format: cell-based; details: A204
# IEC-6 = assay: Cytotoxicity panel (CC50), IEC-6; format: cell-based; details: IEC-6
# H9c = assay: Cytotoxicity panel (CC50), H9c; format: cell-based; details: H9c
# [1] = tested on: 2b (GT1b/2b NS5B chimera); assay: microbe, parasite or virus in culture; format: cell-based, HCV; details: Hepatitis C virus, read-out: EC50(µM) 2b (GT1b/2b NS5B chimera)
# [2] = tested on: 3a (GT1b/3a NS5B chimera); assay: microbe, parasite or virus in culture; format: cell-based, HCV; details: Hepatitis C virus, read-out: EC50(µM) 3a (GT1b/3a NS5B chimera)
# [3] = tested on: 4a (GT1b/4a NS5B chimera); assay: microbe, parasite or virus in culture; format: cell-based, HCV; details: Hepatitis C virus, read-out: EC50(µM) 4a (GT1b/4a NS5B chimera)
# GT1b-NS5B-S96T = assay: microbe, parasite or virus in culture; format: cell-based, HCV; details: Hepatitis C virus, read-out: EC50(µM) GT1b-NS5B-S96T
# GT1b-NS5B-S282T = assay: microbe, parasite or virus in culture; format: cell-based, HCV; details: Hepatitis C virus, read-out: EC50(µM) GT1b-NS5B-S282T
# [4] = Cytotoxicity (CC50) in the GT1b replicon test; format: cell-based; details: gt1b replicon cells
# [5] = Anti-Dengue assay, toxicity (XTT) in Vero cells; details: monkey
# Dengue Type 2 = assay: Anti-Dengue Virus Cytoprotection Assay, Dengue Type 2
# [6] = Anti-Dengue assay, toxicity (XTT) in Huh-7 cells; details: human
# [7] = Huh-7, read-out: Dengue Type 2 Huh-7 Cells (EC50 uM)
# [8] = Vero, read-out: Dengue Type 2 Vero Cells (EC50 uM)
smiles,measurement,setting,value
C[C@@]1(O)[C@H](O)[C@@H](COP(=O)(O)OP(=O)(O)OP(=O)(O)O)O[C@H]1n1ccc(=O)[nH]c1=S,IC50,Human DNA pol α,> 1000 µM
same,IC50,Human DNA pol γ,> 1000 µM
CC(C)OC(=O)[C@H](C)NP(=O)(OC[C@H]1O[C@@H](n2ccc(=S)[nH]c2=O)[C@H](O)[C@@H]1O)Oc1ccccc1 (stereo partly drawn) [drawing 445],CC50,HepG2,> 400 µM
CC(C)OC(=O)[C@H](C)NP(=O)(OC[C@H]1O[C@@H](n2ccc(=S)[nH]c2=O)[C@](C)(O)[C@@H]1O)Oc1ccccc1 (stereo partly drawn) [drawing 447],CC50,Huh-7,> 400 µM
same,CC50,BxPC3,> 300 µM
same,CC50,A204,> 200 µM
same,CC50,IEC-6,> 400 µM
same,CC50,H9c,> 200 µM
CC(C)OC(=O)[C@H](C)NP(=O)(OC[C@H]1O[C@@H](n2ccc(=O)[nH]c2=S)[C@](C)(O)[C@@H]1O)Oc1ccccc1 (stereo partly drawn) [drawing 470],EC50,[1],0.083 µM
same,EC50,[2],0.0882 µM
same,EC50,[3],0.0371 µM
same,EC50,GT1b-NS5B-S96T,0.132 µM
same,EC50,GT1b-NS5B-S282T,> 10 µM
same,CC50,[4],> 10 µM
CC(C)OC(=O)[C@H](C)N[P@](=O)(OC[C@H]1O[C@@H](n2ccc(=O)[nH]c2=O)[C@](C)(F)[C@@H]1O)Oc1ccccc1 [drawing 472],EC50,[1],0.0199 µM
same,EC50,[2],0.0385 µM
same,EC50,[3],0.0493 µM
same,EC50,GT1b-NS5B-S96T,0.0702 µM
same,EC50,GT1b-NS5B-S282T,0.287 µM
same,CC50,[4],> 2 µM
C[C@@]1(O)[C@H](O)[C@@H](CO)O[C@H]1n1ccc(=O)[nH]c1=S [drawing 473],CC50,[5],> 100 µM
same,EC50,Dengue Type 2; [7],> 100 µM
same,EC50,Dengue Type 2; [8],7.79 µM
CC(C)OC(=O)[C@H](C)NP(=O)(OC[C@H]1O[C@@H](n2ccc(=O)[nH]c2=S)[C@](C)(O)[C@@H]1O)Oc1ccccc1 (stereo partly drawn) [drawing 474],CC50,[5],> 100 µM
same,CC50,[6],> 100 µM
same,EC50,Dengue Type 2; [7],5.1 µM
same,EC50,Dengue Type 2; [8],2.02 µM
